Holding throughout (type): cell-based
Test [1] deals with T1, human prostanoid EP1 receptor (Homo sapiens, UniProt P34995).
T1 construct: expressed in transfected cells
T1 sequence (P34995 1-402): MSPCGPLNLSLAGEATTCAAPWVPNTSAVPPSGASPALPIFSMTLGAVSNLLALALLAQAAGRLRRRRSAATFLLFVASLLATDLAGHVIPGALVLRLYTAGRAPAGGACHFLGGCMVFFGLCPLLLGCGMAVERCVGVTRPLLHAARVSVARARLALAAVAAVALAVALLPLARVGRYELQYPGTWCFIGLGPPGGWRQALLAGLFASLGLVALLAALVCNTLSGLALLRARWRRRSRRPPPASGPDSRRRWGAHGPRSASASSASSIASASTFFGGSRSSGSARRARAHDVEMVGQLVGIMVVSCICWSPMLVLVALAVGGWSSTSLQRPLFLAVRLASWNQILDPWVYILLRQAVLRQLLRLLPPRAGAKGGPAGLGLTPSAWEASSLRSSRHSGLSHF
Put plainly: FLIPR Ca2+ signaling antagonist assay, EP1 receptor stable cell line. The settings on record: HEK-293 EBNA stable cell line; standard agonist PGE2; NA = inactive (no antagonism or Kb 10,000 nM); PAg, Ag not defined. In outline:
(§1)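 Peak Fluo-4 fluorescence (ex 470–495, em 515–575 nm) was read for 3.5 min on FLIPR after agonist injection and expressed relative to 10^−6 M standard agonist. Cells were HEK-293 EBNA transfectants. Test compound was added 4.5 min beforehand at 0.1–30 μM, or 0.067–1 μM for TP.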

Test [2] concerns the target T2, human prostanoid TP receptor (Homo sapiens, UniProt P21731).
T2 construct: expressed in transfected cells
T2 sequence (P21731 1-343): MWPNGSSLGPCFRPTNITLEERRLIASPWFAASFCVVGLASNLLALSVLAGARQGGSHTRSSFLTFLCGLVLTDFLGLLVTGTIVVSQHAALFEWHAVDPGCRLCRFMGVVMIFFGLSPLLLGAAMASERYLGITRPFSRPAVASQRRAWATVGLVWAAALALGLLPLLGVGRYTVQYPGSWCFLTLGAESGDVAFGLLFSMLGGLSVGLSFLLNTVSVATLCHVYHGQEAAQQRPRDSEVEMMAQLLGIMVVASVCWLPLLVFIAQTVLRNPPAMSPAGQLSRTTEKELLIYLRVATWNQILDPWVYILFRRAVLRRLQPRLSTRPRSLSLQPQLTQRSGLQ
Put plainly: FLIPR Ca2+ signaling antagonist assay, TP receptor stable cell line. Conditions: HEK-293 EBNA stable cell line; standard agonist U-46619; NA = inactive (no antagonism or Kb 10,000 nM); PAg, Ag not defined. In outline:
as §1

In test [3] the target is T3, human prostanoid EP4 receptor (Homo sapiens, UniProt P35408).
T3 construct: expressed in transfected cells
T3 sequence (P35408 whole entry): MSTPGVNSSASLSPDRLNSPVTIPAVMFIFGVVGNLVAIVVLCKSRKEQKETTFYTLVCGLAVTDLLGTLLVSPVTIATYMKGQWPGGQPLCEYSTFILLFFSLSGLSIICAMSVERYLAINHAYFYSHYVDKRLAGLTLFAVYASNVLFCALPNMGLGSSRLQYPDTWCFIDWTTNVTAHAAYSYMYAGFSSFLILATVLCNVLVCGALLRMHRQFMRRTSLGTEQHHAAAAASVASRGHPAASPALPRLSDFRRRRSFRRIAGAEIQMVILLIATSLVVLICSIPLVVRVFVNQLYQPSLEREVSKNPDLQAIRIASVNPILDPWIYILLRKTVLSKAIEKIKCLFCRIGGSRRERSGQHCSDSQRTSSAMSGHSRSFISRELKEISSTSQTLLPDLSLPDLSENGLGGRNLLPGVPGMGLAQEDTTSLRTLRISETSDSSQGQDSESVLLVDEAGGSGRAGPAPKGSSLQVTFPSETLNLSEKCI
Put plainly: FLIPR Ca2+ signaling antagonist assay, EP4 receptor stable cell line. The settings on record: HEK-293 EBNA stable cell line; standard agonist PGE2; NA = inactive (no antagonism or Kb 10,000 nM); PAg, Ag not defined. Put shortly:
as §1

Where only a bound is given, the exact number is not on record here.

What is called Kb is the affinity of an antagonist, worked out from how it opposes an agonist. Read a low Kb as higher antagonist affinity.

With `CCCc1cc(CCC(=O)O)nn1Cc1cc(Br)ccc1OCC(CC)CC` [Example 56, 3-{1-[5-Bromo-2-(2-ethyl-butoxy)-benzyl]-5-propyl-1H-pyrazol-3-yl}-propionic acid], the results for the Kb in test [1], in test [2] and in test [3] were 60 nM, 70 nM and 3 nM, respectively.

Regarding `Cc1cc(CCC(=O)NS(=O)(=O)C(F)(F)F)nn1Cc1cc(Br)ccc1OCC(C)C` [Example 19, N-(3-{1-[5-Bromo-2-isobutoxybenzyl]-5-methyl-1H-pyrazol-3-yl}-propionyl)-C,C,C-trifluoro-methanesulfonamide], the Kb in test [1] was determined as 14 nM; in test [2], 1 nM; in test [3], 30 nM.

Turning to `Cc1cc(CCC(=O)NS(=O)(=O)CC(F)(F)F)nn1Cc1cc(Cl)ccc1OCc1ccc(Cl)cc1` [Example 25, 2,2,2-trifluoroethanesulfonic acid-(3-[1-(5-Chloro-2-(4-chlorobenzyloxy)benzyl)-5-methyl-1H-pyrazol-3-yl]-propionyl)amide], the Kb in test [1] is 6 nM; in test [2], below 1 nM. Also, the “EP4 (FLIPR) Kb” value in test [3] was “Ag”.

With `CCC(CC)COc1ccc(Br)cc1Cn1nc(CCC(=O)O)cc1C(C)(C)C` [Example 57, 3-{1-[5-Bromo-2-(2-ethyl-butoxy)-benzyl]-5-tert-butyl-1H-pyrazol-3-yl}-propionic acid], the Kb was determined as 150 nM in test [1], 500 nM in test [2] and 700 nM in test [3].

For `CCC(CC)COc1ccc(Br)cc1Cn1nc(CCC(=O)NS(=O)(=O)C(F)(F)F)cc1C` [Example 17, N-(3-{1-[5-Bromo-2-(2-ethyl-butoxy)-benzyl]-5-methyl-1H-pyrazol-3-yl}-propionyl)-C,C,C-trifluoro-methanesulfonamide], the Kb was 15 nM in test [1], below 1 nM in test [2] and 35 nM in test [3].

Consider `CCCCC(CC)COc1ccc(Br)cc1Cn1nc(CCC(=O)O)cc1C` (stereo not drawn) [Example 6, 3-[1-(5-Bromo-2-(2-ethyl-hexyloxy)-benzyl)-5-methyl-1H-pyrazol-3-yl]-propionic acid], for which the values for the Kb in test [1], in test [2] and in test [3] were 380 nM, 10 nM and 1100 nM, respectively.

Consider `Cc1cc(CCC(=O)NS(=O)(=O)C(F)(F)F)nn1Cc1cc(Cl)ccc1OCc1ccc(Cl)cc1Cl` [Example 27, N-(3-[1-(5-Chloro-2-(2,4-dichlorobenzyloxy)benzyl)-5-methyl-1H-pyrazol-3-yl]-propionyl)C,C,C-trifluoromethanesulfonamide], for which the “EP1 (FLIPR) Kb” value in test [1] is listed as “PAg”. Further, the “TP (FLIPR) Kb” value in test [2] is recorded as “PAg”. The molecule further registered a Kb in test [3] of 150 nM.

With `Cc1cc(CCC(=O)NS(=O)(=O)C(F)(F)F)nn1Cc1cc(Cl)ccc1CCC1CCCC1` [Example 75], the Kb amounted to 60 nM in test [1], 12 nM in test [2] and 1000 nM in test [3].

Turning to `Cc1cc(CCC(=O)O)nn1Cc1cc(Cl)ccc1C#CC1CCCC1` [Example 73, 3-{1-[5-Chloro-2-cyclopentylethynyl-benzyl]-5-methyl-1H-pyrazol-3-yl}-propionic acid], the values for the Kb in test [1], in test [2] and in test [3] were 6 nM, 2 nM and 600 nM, respectively.

For the molecule `Cc1cc(CCC(=O)O)nn1Cc1cc(Br)ccc1OCC1(C(F)(F)F)CCC1` [Example 13, 3-[1-(5-Bromo-2-(1-trifluoromethylcyclobutylmethoxy)-benzyl)-5-methyl-1H-pyrazol-3-yl]-propionic acid], the Kb in test [1] was found to be 30 nM; in test [2], 10 nM; in test [3], 1000 nM.

For `Cc1cc(CCC(=O)O)nn1Cc1cc(Cl)ccc1OCc1ccc(Cl)cc1Cl` [Example 26, 3-[1-(5-Chloro-2-(2,4-dichlorobenzyloxy)benzyl)-5-methyl-1H-pyrazol-3-yl]-propionic acid], the Kb in test [1] was 3 nM; in test [3], 8400 nM. In test [2], the “TP (FLIPR) Kb” value is “PAg”.

For the molecule `CCC(CC)COc1ccc(Br)cc1Cn1nc(CCC(=O)O)cc1C(C)C` [Example 55, 3-{1-[5-Bromo-2-(2-ethyl-butoxy)-benzyl]-5-isopropyl-1H-pyrazol-3-yl}-propionic acid], the Kb was determined as 60 nM in test [1], 250 nM in test [2] and 80 nM in test [3].

For `Cc1cc(CC(C)(C)C(=O)O)nn1Cc1cc(Br)ccc1OCC1CCCC1` [Example 71, 3-{1-[5-Bromo-2-(2-cyclopentylmethoxy)-benzyl]-5-methyl-1H-pyrazol-3-yl}-2,2-dimethyl-propionic acid], the Kb amounted to 50 nM in test [1], 8 nM in test [2] and 80 nM in test [3].

As for `CCC(CC)COc1ccc(Br)cc1Cn1nc(CCC(=O)O)cc1C(F)(F)F` [Example 58, 3-{1-[5-Bromo-2-(2-ethyl-butoxy)-benzyl]-5-trifluororomethyl-1H-pyrazol-3-yl}-propionic acid], the Kb in test [1] stood at 370 nM; in test [2], 150 nM. Moreover, the “EP4 (FLIPR) Kb” value in test [3] was “PAg”.

For the molecule `CCCC(C)COc1ccc(Br)cc1Cn1nc(CCC(=O)O)cc1C` (stereo not drawn) [Example 8, 3-[1-(5-Bromo-2-(2-methyl-pentyloxy)-benzyl)-5-methyl-1H-pyrazol-3-yl]-propionic acid], the figures for the Kb in test [1], in test [2] and in test [3] were 40 nM, 1 nM and 400 nM, respectively.

The values are drawn from patent US9394284B2, “Compounds act at multiple prostaglandin receptors giving a general anti-inflammatory response” (Allergan, Inc., priority 2010, dated 2016).
